Test results: patent publication US20240189440A1, “TLR7 AND TLR8 AGONISTS FOR THE TREATMENT OF CANCER AND/OR INFECTIOUS DISEASES” (priority 2021, published 2024)

Assays:
[1] = test system: NFκB induction (SEAP) in Ramos-blue cells; assay: NFkB activation in Ramos-Blue cells for additional TLR7 agonists (Example 31); format: cell-based; conditions: for EC (2-fold SEAP signal): lowest concentration that doubles the SEAP background (nontreated) signal, read-out: Lowest concentration to induce 2x SEAP; for Fold increase in SEAP signal at lowest active concentration: versus nontreated background
Procedure: A 3× serial dilution was performed in 10% DMSO in PBS for each payload to have a final range of concentration from 1000 uM to 76 nM. Ramos-blue cells (InvivoGen, cat #rms-sp) were cultured using high glucose DMEM media supplied with 10% fetal bovine serum according to the manufacturer guidelines. The media was supplemented with 50 U/mL penicillin, 50 ug/mL streptomycin, and 100 ug/mL normocin to prevent bacterial contamination. The cell density and viability were calculated using a Countess Cell Counter and the proper volume of cells was removed in order to have a seeding density of 0.2×10^6 cells/mL per well. 135 uL of the cell suspension was added to each well in a 96-well plate along with 15 uL of the corresponding payload treatment. Each assay point was run in triplicate and the plate was incubated at 37° C. with 5% CO2 for 24 or 72 hours. In order to assess the NFκB induction, the QUANTI-Blue™ solution was prepared by adding 200 uL of QB reagent (InVivogen cat #rep-qbs) and 200 uL of QB buffer to 19.6 mL of water. The resulting solution was vortexed and incubated at room temperature for ten minutes. The 96-well plate was centrifuged at 1990 rpm for ten minutes and 40 uL of the cell supernatant was added to 160 uL of the prepared QUANTI-Blue™ solution. The QB reaction plate was incubated at 37° C. for 24 hours. The plate was read using the Molecular Devices i3x plate reader at a wavelength of 630 nm to determine the amount of SEAP production. The table below illustrates the lowest concentration of each compound that results in a doubling of the SEAP background (nontreated) signal. As illustrated, compounds of the invention ranged from low nM to low micromolar.

[2] = test system: NFκB pathway in Ramos-blue cells; assay: Ramos-Blue NFκB/SEAP reporter assay with cysteine-capped linker-payloads, 72 h (Example 15); format: cell-based; conditions: cysteine-capped, 72 hours, SEAP at 630 nm, read-out: Relative Activation; for activation at 5 µM: Linker-Payload Dose 5 uM; for activation at 50 µM: Linker-Payload Dose 50 uM
Procedure: A 50 mM cysteine stock was prepared in 0.1 M PBS pH 7.4. 10 equivalents of 50 mM cysteine were added to 1 equivalent of linker-payload to create a 2.50 mM solution. The reaction was vortexed and sat at room temperature for an hour to allow for the Michael addition to occur. After an hour, an aliquot was taken and run via UPLC-MS to ensure for the complete Michael reaction. The reaction was diluted to 1 mM using 0.1M PBS pH 7.4. The 1 mM solution was diluted to 500 uM and 50 uM in a 96-well plate to afford a final concentration of 50 uM and 5 uM in the cell suspension. The cell density and viability were calculated using the Countess Cell Counter and the proper volume of cells was removed in order to have a seeding density of 0.2×10^6 cells/mL per well. 135 uL of cell suspension was added to each well in a 96-well plate along with 15 uL of the corresponding linker-payload treatment. Each concentration was run in triplicate and incubated at 37° C. with 5% CO2 for 72 hours.
Invivogen's QUANTI-Blue™ solution was prepared by adding 200 uL of QB reagent and 200 uL of QB buffer to 19.6 mL of water. The resulting solution was vortexed and incubated at room temperature for ten minutes. The 96-well plate was centrifuged at 1990 rpm for ten minutes. Then, 40 uL of cell supernatant was added to 160 uL of the prepared QUANTI-Blue™ solution and incubated at 37° C. for 24 hours. The plate was read using the Molecular Devices i3x plate reader at a wavelength of 630 nm to determine the amount of SEAP production.

CCCCc1nc2c(N)nc3ccccc3c2n1Cc1ccc(NC(=O)CCN)cc1 [20g, 3-amino-N-(4-((4-amino-2-butyl-1H-imidazo[4,5-c]quinolin-1-yl)methyl)phenyl)propanamide]
EC (2-fold SEAP signal) [1]: 0.62 µM | Fold increase in SEAP signal at lowest active concentration [1]: 2.638

CCCCc1nc2c(N)nc3ccccc3c2n1Cc1ccc(NC(=O)OCc2ccc(NC(=O)C(CCCNC(N)=O)NC(=O)C(NC(=O)CCCCCN3C(=O)C=CC3=O)C(C)C)cc2)cc1 (centres unmarked) [Mc_ValCitPABC_E104, 4-(2-(2-(6-(2,5-dioxo-2,5-dihydro-1H-pyrrol-1-yl)hexanamido)-3-methylbutanamido)-5-ureidopentanamido)benzyl 4-((4-amino-2-butyl-1H-imidazo[4,5-c]quinolin-1-yl)methyl)phenylcarbamate]
activation at 5 µM [2]: 12.7% | activation at 50 µM [2]: -19.2%

CCOCc1nc2c(NC(=O)CCCCCN3C(=O)C=CC3=O)nc3ccccc3c2n1CC(C)(C)O [Mc_Resiquimod, 6-(2,5-dioxo-2,5-dihydro-1H-pyrrol-1-yl)-N-(2-(ethoxymethyl)-1-(2-hydroxy-2-methylpropyl)-1H-imidazo[4,5-c]quinolin-4-yl)hexanamide]
activation at 5 µM [2]: 17.6% | activation at 50 µM [2]: -21%

CCCCc1nc2c(N)nc3ccccc3c2n1Cc1ccc(CNC(=O)C(CCCNC(N)=O)NC(=O)C(NC(=O)CCCCCN2C(=O)C=CC2=O)C(C)C)cc1 (centres unmarked) [Mc_ValCit_E66, N-(1-(1-(4-((4-amino-2-butyl-1H-imidazo[4,5-c]quinolin-1-yl)methyl)benzylamino)-1-oxo-5-ureidopentan-2-ylamino)-3-methyl-1-oxobutan-2-yl)-6-(2,5-dioxo-2,5-dihydro-1H-pyrrol-1-yl)hexanamide]
activation at 5 µM [2]: 125% | activation at 50 µM [2]: -51.4%

CCCCC(=O)Nc1ccc(Cn2c(CCCC)nc3c(N)nc4ccccc4c32)cc1 [20k, N-(4-((4-amino-2-butyl-1H-imidazo[4,5-c]quinolin-1-yl)methyl)phenyl)pentanamide]
EC (2-fold SEAP signal) [1]: 0.0076 µM | Fold increase in SEAP signal at lowest active concentration [1]: 2.398

CCCCc1nc2c(N)nc3ccccc3c2n1Cc1ccc(NC(=O)CCCCNC(=O)OC(C)(C)C)cc1 [20d, tert-butyl(5-((4-((4-amino-2-butyl-1H-imidazo[4,5-c]quinolin-1-yl)methyl)phenyl)amino)-5-oxopentyl)carbamate]
EC (2-fold SEAP signal) [1]: 0.0076 µM | Fold increase in SEAP signal at lowest active concentration [1]: 2.222

CCCCc1nc2c(N)nc3ccccc3c2n1Cc1ccc(NC(=O)CN)cc1 [20f, 2-amino-N-(4-((4-amino-2-butyl-1H-imidazo[4,5-c]quinolin-1-yl)methyl)phenyl)acetamide]
EC (2-fold SEAP signal) [1]: 0.069 µM | Fold increase in SEAP signal at lowest active concentration [1]: 2.225

CCCCc1nc2c(N)nc3ccccc3c2n1Cc1ccc(O)cc1 [22f, 4-((4-amino-2-butyl-1H-imidazo[4,5-c]quinolin-1-yl)methyl)phenol]
EC (2-fold SEAP signal) [1]: 0.069 µM | Fold increase in SEAP signal at lowest active concentration [1]: 2.269

CCCCc1nc2c(N)nc3ccccc3c2n1Cc1ccc(NC(=O)CCCCCNC(=O)OC(C)(C)C)cc1 [20e, tert-butyl(6-((4-((4-amino-2-butyl-1H-imidazo[4,5-c]quinolin-1-yl)methyl)phenyl)amino)-6-oxohexyl)carbamate]
EC (2-fold SEAP signal) [1]: 0.069 µM | Fold increase in SEAP signal at lowest active concentration [1]: 2.983

CCCCc1nc2c(N)nc3ccccc3c2n1Cc1ccc(CNC(=O)OCc2ccc(NC(=O)C(CCCNC(N)=O)NC(=O)C(NC(=O)CCCCCN3C(=O)C=CC3=O)C(C)C)cc2)cc1 (centres unmarked) [Mc_ValCitPABC_E66, 4-(2-(2-(6-(2,5-Dioxo-2,5-dihydro-1H-pyrrol-1-yl)hexanamido)-3-methylbutanamido)-5-ureidopentanamido)benzyl 4-((4-amino-2-butyl-1H-imidazo[4,5-c]quinolin-1-yl)methyl)benzylcarbamate]
activation at 5 µM [2]: 7.15% | activation at 50 µM [2]: -19.7%

CCCCc1nc2c(N)nc3ccccc3c2n1Cc1ccc(NC(=O)OC(C)C)cc1 [20n, Isopropyl (4-((4-amino-2-butyl-1H-imidazo[4,5-c]quinolin-1-yl)methyl)phenyl)carbamate]
EC (2-fold SEAP signal) [1]: 0.0076 µM | Fold increase in SEAP signal at lowest active concentration [1]: 1.925

CCCCc1nc2c(N)nc3ccccc3c2n1Cc1ccc(NC(=O)CCCNC(=O)OC(C)(C)C)cc1 [20c, tert-butyl(4-((4-((4-amino-2-butyl-1H-imidazo[4,5-c]quinolin-1-yl)methyl)phenyl)amino)-4-oxobutyl)carbamate]
EC (2-fold SEAP signal) [1]: 0.0076 µM | Fold increase in SEAP signal at lowest active concentration [1]: 2.352

CCCCc1nc2c(N)nc3ccccc3c2n1Cc1cccc(O)c1 [21f, 3-((4-amino-2-butyl-1H-imidazo[4,5-c]quinolin-1-yl)methyl)phenol]
EC (2-fold SEAP signal) [1]: 0.21 µM | Fold increase in SEAP signal at lowest active concentration [1]: 2.902

CCCCc1nc2c(N)nc3ccccc3c2n1Cc1cccc(N)c1 [23f, 1-(3-aminobenzyl)-2-butyl-1H-imidazo[4,5-c]quinoline-4-amine]
EC (2-fold SEAP signal) [1]: 0.023 µM | Fold increase in SEAP signal at lowest active concentration [1]: 1.946

CCCCc1nc2c(N)nc3ccccc3c2n1Cc1cccc(NC(=O)OC(C)(C)C)c1 [23e, Tert-butyl (3-((4-amino-2-butyl-1H-imidazo[4,5-c]quinoline-1-yl)methyl)phenyl)carbamate]
EC (2-fold SEAP signal) [1]: 1.87 µM | Fold increase in SEAP signal at lowest active concentration [1]: 4.344

(3-((4-((4-amino-2-butyl-1H-imidazo[4,5-c]quinolin-1-yl)methyl)phenyl)amino)-3-oxopropyl)carbamate [20b]
EC (2-fold SEAP signal) [1]: 0.0076 µM | Fold increase in SEAP signal at lowest active concentration [1]: 4.416

CCCCc1nc2c(N)nc3ccccc3c2n1Cc1cccc(OC)c1 [21e, 2-butyl-1-(3-methoxybenzyl)-1H-imidazo[4,5-c]quinoline-4-amine]
EC (2-fold SEAP signal) [1]: 0.62 µM | Fold increase in SEAP signal at lowest active concentration [1]: 5.753

CCCCc1nc2c(N)nc3ccccc3c2n1Cc1ccc(NC(=O)CCCCCN)cc1 [20j, 6-amino-N-(4-((4-amino-2-butyl-1H-imidazo[4,5-c]quinolin-1-yl)methyl)phenyl)hexanamide]
EC (2-fold SEAP signal) [1]: 0.21 µM | Fold increase in SEAP signal at lowest active concentration [1]: 2.802

CCCCc1nc2c(N)nc3ccccc3c2n1Cc1ccc(NC(=O)OCC)cc1 [20m, ethyl (4-((4-amino-2-butyl-1H-imidazo[4,5-c]quinolin-1-yl)methyl)phenyl)carbamate]
EC (2-fold SEAP signal) [1]: 0.023 µM | Fold increase in SEAP signal at lowest active concentration [1]: 3.188

CCCCOC(=O)Cc1ccc(Cn2c(CCCC)nc3c(N)nc4ccccc4c32)cc1 [20o, Butyl 2-(4-((4-amino-2-butyl-1H-imidazo[4,5-c]quinolin-1-yl)methyl)phenyl)acetate]
EC (2-fold SEAP signal) [1]: 0.069 µM | Fold increase in SEAP signal at lowest active concentration [1]: 4.158

CCCCc1nc2c(N)nc3ccccc3c2n1Cc1ccc(NC(C)=O)cc1 [20l, N-(4-((4-amino-2-butyl-1H-imidazo[4,5-c]quinolin-1-yl)methyl)phenyl)acetamide]
EC (2-fold SEAP signal) [1]: 0.023 µM | Fold increase in SEAP signal at lowest active concentration [1]: 2.11

CCCCc1nc2c(N)nc3ccccc3c2n1Cc1ccc(OC)cc1 [22e, 2-butyl-1-(4-methoxybenzyl)-1H-imidazo[4,5-c]quinolin-4-amine]
EC (2-fold SEAP signal) [1]: 0.21 µM | Fold increase in SEAP signal at lowest active concentration [1]: 2.537
